Patent publication US6890969B2, “Polymer emulsion preservation using cationic compounds” (Air Products Polymers, L.P., priority 2000, dated 2005)
Structures can show the parent of a compound that is named as a salt. Where two headings read alike, the source gives them in different places. Marks after values point to notes of the source that are not given here.

How the values were obtained:
GABL = GABL biochallenge test of preserved polymer emulsions (streak plate / RABIT), inoculations passed; format: cell-based, Gluconoacetobacter liquefaciens; settings: for Inoculations Passed: PVOH-stabilized VAE emulsion, <1000 ppm vinyl acetate
Method: GABL Inoculum Preparation
A recently isolated culture of GABL was grown on potato dextrose agar slants by inoculating the agar surface. The potato dextrose agar slants were incubated for 48-72 hours at 25° C. After this incubation period, GABL cells were harvested using quarter strength Ringers solution to wash the GABL colonies off of the agar surface. The washings from each slant were combined into one sterile, Erlenmeyer flask. The number of slants and the amount of quarter strength Ringers solution used to wash off the GABL colonies was adjusted during the procedure to obtain a final microbial viable count in the range of 10^8-10^10 CFU/mL.
Rapid Automated Bacterial Impedance Technique (RABIT): supplied by Microbiology International, manufactured by Don Whitley Scientific, Ltd.
RABIT utilizes the principal of impedance microbiology to detect and assess microbial activity in a given sample. Using the RABIT, microbial metabolism is monitored by measuring the amount of carbon dioxide produced by actively respiring microorganisms. The electrodes in the RABIT test cells are partially covered with alkaline agar containing potassium hydroxide. As inoculated test samples are monitored on the RABIT, carbon dioxide produced from microbial metabolism is absorbed by the alkaline agar resulting in a change in conductivity. Conductivity is monitored with time and the time to reach a pre-specified rate of reduction in conductivity is termed the time to detection (TTD). Therefore, the shorter the TTD, the higher the number of microorganisms present. Failure can be defined as three successive decreases in conductivity equal to or greater than a pre-specified value (−10 microSiemens is recommended by the manufacturer) at any time during the 72 hour RABIT monitoring period. Alternatively, failure can be defined as a pre-specified total change in conductivity.
Biochallenge Test Procedure
Samples (50 g each) of each test emulsion containing a test antimicrobial agent were inoculated with 1.0 mL of the GABL inoculum. After mixing well, the samples were then placed in a 30° C. incubator. After 1, 2, and 6 days of incubation each sample was streak plated onto potato dextrose agar to assess the level of surviving GABL microorganisms. The potato dextrose agar plates were incubated at 25° C. for 48-72 hours before assessing the growth. On the seventh day of incubation, each test emulsion sample was inoculated again with a freshly prepared GABL inoculum, mixed well, then placed back into the incubator. The samples were again streak plated onto potato dextrose agar after incubating for 1, 2, and 6 days since the second inoculation. On the fourteenth day after the test was initiated, the test emulsions were inoculated a third time with another freshly prepared GABL inoculum and then placed back into the incubator. The samples were again streak plated onto potato dextrose agar after 1, 2, 6, and 13 days of incubation since the third inoculation to assess surviving microorganisms. Test failure is defined as a microbial viable count >300 CFU/10 μL observed from the potato dextrose agar streak plate assessments.
Biochallenge Test Procedure Via the RABIT
A small amount of a microbial nutrient was added to each emulsion test sample (50 g) containing a test antimicrobial agent. The resulting samples were then inoculated with 1.0 mL of the GABL inoculum. After mixing well, an aliquot (5 g) of each test sample was placed into separate RABIT indirect conductivity tubes. The indirect conductivity tubes were then placed into the RABIT incubator modules set at 30° C. and the conductivity changes monitored for up to 72 hours. The remainder of each test sample was stored in a 30° C. incubator during the RABIT monitoring period. At the completion of the RABIT monitoring period, the aliquot samples were placed back into their respective sample containers. Each test sample was then re-inoculated with a freshly prepared GABL inoculum. […]

mixed bacterial pool = format: cell-based; settings: PVOH-stabilized VAE emulsion Tg 0, <1000 ppm vinyl acetate
Method: The preservative efficacy of several cationic compounds in a poly(vinyl alcohol)-stabilized VAE copolymer emulsion (Tg=0) containing less than 1000 ppm vinyl acetate was assessed according to the following procedure:
Aeromonas hydrophilia, Alcaligenes faecalis, Corynebacterium ammoniagenes, Enterobacter aerogenes, Escherichia coli, Klebsiella pneumoniae, Pseudomonas aeruginosa, Proteus vulgaris, Providencia rettgeri, Pseudomonas stutzeri, Shewanella putrefaciens, Serratia liquefaciens, Acinetobacter baumannii, Burkholderia cepacia, Chryseobacterium meningosepticum, Sphingobacterium spiritivorum, Ralstonia pickettii, and GABL.
Mixed Bacterial Pool Inoculum Preparation
Each bacterial culture was individually grown on nutrient agar slants, except GABL was grown on potato dextrose agar slants, by inoculating the agar surfaces. The nutrient agar slants were incubated for 24-48 hours at 30° C. and the potato dextrose agar slants were incubated for 48-72 hours at 25° C. After this incubation period, the cells were harvested using quarter strength Ringers solution to wash the bacterial colonies off the agar surface. The washings from all of the slants were combined into one sterile, Erlenmeyer flask. The number of slants and the amount of Ringers Solution used to wash off the bacterial colonies is adjusted during the procedure to obtain a final mixed microbial viable count in the range of 10^8-10^10 CFU/mL.
Bacterial Biochallenge Test Procedure
The RABIT procedures were followed as described in Example 1, except the mixed bacterial pool inoculum was used to inoculate the test samples instead of the GABL inoculum.

CCCCCCCCCCCCNC(=N)N [DGH, n-dodecylguanidine hydrochloride]
4: # of GABL Inoculations Passed (GABL; DGH 150 ppm, emulsion VA/E, Tg 0 °C, H2O2/SFS, PVOH (first such line of Table 2))
3: # of GABL Inoculations Passed (GABL; DGH 100 ppm, emulsion VA/E, Tg 0 °C, H2O2/SFS, PVOH (first such line of Table 2)) | # of GABL Inoculations Passed (GABL; DGH 150 ppm, emulsion VA/E, Tg −5 °C, H2O2/SFS, PVOH/nonionic surfactant) | # of GABL Inoculations Passed (GABL; DGH 200 ppm, emulsion VA/E, Tg −5 °C, H2O2/SFS, PVOH/nonionic surfactant)
0: # of GABL Inoculations Passed (GABL; DGH 100 ppm, emulsion VA/E, Tg 4 °C, KPS/SFS, Nonionic surfactant/HEC) | # of GABL Inoculations Passed (GABL; DGH 100 ppm, emulsion VA/E/MA/SVS, Tg 5 °C, KPS/SFS, Nonionic surfactant) | # of GABL Inoculations Passed (GABL; DGH 150 ppm, emulsion VA/E, Tg 4 °C, KPS/SFS, Nonionic surfactant/HEC) | # of GABL Inoculations Passed (GABL; DGH 150 ppm, emulsion VA/E/MA/SVS, Tg 5 °C, KPS/SFS, Nonionic surfactant) | # of GABL Inoculations Passed (GABL; DGH 200 ppm, emulsion VA/E, Tg 4 °C, KPS/SFS, Nonionic surfactant/HEC) | # of GABL Inoculations Passed (GABL; DGH 200 ppm, emulsion VA/E/AA, Tg 0 °C, H2O2/SFS, PVOH/nonionic surfactant) | # of GABL Inoculations Passed (GABL; DGH 200 ppm, emulsion VA/E/MA/SVS, Tg 5 °C, KPS/SFS, Nonionic surfactant) | # of GABL Inoculations Passed (GABL; DGH 200 ppm, emulsion VA/E/SVS/NMA, Tg 10 °C, TBHP/sodium erythorbate, Anionic sulfate surfactant)
7: # of GABL Inoculations Passed (GABL; DGH 200 ppm, emulsion VA/E, Tg 0 °C, H2O2/SFS, PVOH (second such line of Table 2)) | Inoculations Passed (GABL; Tg 0 °C, biocide dosage 200 ppm active) | Inoculations Passed (mixed bacterial pool; active biocide dosage 200 ppm)
1: # of GABL Inoculations Passed (GABL; DGH 100 ppm, emulsion VA/E, Tg 0 °C, H2O2/SFS, PVOH/nonionic surfactant) | # of GABL Inoculations Passed (GABL; DGH 100 ppm, emulsion VA/E, Tg −5 °C, H2O2/SFS, PVOH/nonionic surfactant) | Inoculations Passed (GABL; Tg 0 °C, biocide dosage 50 ppm active)
2: # of GABL Inoculations Passed (GABL; DGH 100 ppm, emulsion VA/E, Tg 0 °C, H2O2/SFS, PVOH (second such line of Table 2)) | # of GABL Inoculations Passed (GABL; DGH 100 ppm, emulsion VA/E, Tg −15 °C, H2O2/SFS, PVOH) | # of GABL Inoculations Passed (GABL; DGH 150 ppm, emulsion VA/E, Tg 0 °C, H2O2/SFS, PVOH/nonionic surfactant) | # of GABL Inoculations Passed (GABL; DGH 200 ppm, emulsion VA/E, Tg 0 °C, H2O2/SFS, PVOH/nonionic surfactant) | # of GABL Inoculations Passed (GABL; DGH 200 ppm, emulsion VA/E, Tg 8 °C, KPS/SFS, PVOH) | Inoculations Passed (GABL; Tg 0 °C, biocide dosage 100 ppm active) | Inoculations Passed (mixed bacterial pool; active biocide dosage 100 ppm)
≧4^b: # of GABL Inoculations Passed (GABL; DGH 100 ppm, emulsion VA/E, Tg 20 °C, H2O2/SFS, PVOH, stopped after 4th inoculation) | # of GABL Inoculations Passed (GABL; DGH 150 ppm, emulsion VA/E, Tg 20 °C, H2O2/SFS, PVOH, stopped after 4th inoculation) | # of GABL Inoculations Passed (GABL; DGH 200 ppm, emulsion VA/E, Tg 20 °C, H2O2/SFS, PVOH, stopped after 4th inoculation)
≧7^a: # of GABL Inoculations Passed (GABL; DGH 150 ppm, emulsion VA/E, Tg 14 °C, H2O2/SFS, PVOH, stopped after 7th inoculation) | # of GABL Inoculations Passed (GABL; DGH 200 ppm, emulsion VA/E, Tg 0 °C, H2O2/SFS, PVOH (first such line of Table 2), stopped after 7th inoculation) | # of GABL Inoculations Passed (GABL; DGH 200 ppm, emulsion VA/E, Tg 14 °C, H2O2/SFS, PVOH, stopped after 7th inoculation) | # of GABL Inoculations Passed (GABL; DGH 200 ppm, emulsion VA/E, Tg −15 °C, H2O2/SFS, PVOH, stopped after 7th inoculation)
5: # of GABL Inoculations Passed (GABL; DGH 100 ppm, emulsion VA/E, Tg 14 °C, H2O2/SFS, PVOH) | # of GABL Inoculations Passed (GABL; DGH 150 ppm, emulsion VA/E, Tg −15 °C, H2O2/SFS, PVOH)
